# Source: patent US10815276B2, “Cell penetrating peptides and methods of making and using thereof” (Entrada Therapeutics, Inc., priority 2014, dated 2020)
# Starred links: 1 amine or outer side, 2 acyl side, 3 side chain; linkers in the order of their positions; H or OH if unused. Positions of bridges follow the written chain, without caps; N, C: chain ends. Non-standard residues stand in square brackets, D forms with d. Residues, ends and D or L forms follow the SMILES beside them. No end group written: not given here. Trimesoyl = O=C(c1cc(C(=O)[*:2])cc(C(=O)[*:3])c1)[*:1]; Phe(4-F) = N[C@@H](Cc1ccc(F)cc1)C(=O)O; dPhe(4-F) = N[C@H](Cc1ccc(F)cc1)C(=O)O; 2Nal = N[C@@H](Cc1ccc2ccccc2c1)C(=O)O; Pip = O=C(O)[C@@H]1CCCCN1; Dap = NC[C@H](N)C(=O)O
# Legend:
# Pin1 [1] = target: T1, Pin1 (Homo sapiens, UniProt Q13526, S16A/Y23A); assay: Pin1 binding by FA (FITC-labeled peptides); details: FITC-labeled peptide, FA; read-out: KD
# T1 construct: The full-length human S16A/Y23A mutant Pin1 was expressed and purified from E. coli; made in house
# T1 sequence (Q13526 whole entry S16A/Y23A): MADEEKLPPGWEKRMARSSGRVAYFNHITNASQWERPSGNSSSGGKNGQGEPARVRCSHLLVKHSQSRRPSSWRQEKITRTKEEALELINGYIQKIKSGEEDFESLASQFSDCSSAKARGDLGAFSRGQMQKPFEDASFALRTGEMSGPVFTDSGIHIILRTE
# Pin1 [2] = target: T1, Pin1; assay: FA competition with FITC-labeled peptide 1; details: 100 nM FITC-labeled peptide 1, 400 nM Pin1; read-out: IC50 for inhibiting binding of peptide 1 to Pin1
# Protocol: (§1) (FIG. 37A) Binding to FITC-labeled peptide 37 to Pin1 as analyzed by fluorescent anisotropy (FA). (FIG. 37B) Competition between peptide 37 and FITC-labeled peptide 1 (100 nM) for binding to Pin1 (400 nM) as monitored by FA. (FIG. 37C) Effect of peptide 37 on the cis-trans isomerase activity of Pin1, Pin4, FKBP12, and cyclophilin A using Suc-Ala-Glu-Pro-Phe-pNA as substrate. (FIG. 37D) Comparison of the serum stability of peptides 1 and 37.
# (§2) To determine whether peptide 37 binds to the catalytic site of Pin1, its ability to compete with peptide 1 for binding to Pin1 by FA analysis was examined. […] Next, the catalytic activity of Pin1 toward a peptide substrate, Suc-Ala-Glu-Pro-Phe-pNA, in the presence of increasing concentrations of peptide 37 was monitored.
# Pin1 [3] = target: T1, Pin1; assay: cis-trans isomerase activity, Suc-Ala-Glu-Pro-Phe-pNA; format: biochemical; details: substrate Suc-Ala-Glu-Pro-Phe-pNA; read-out: IC50 for Pin1 catalytic activity
# Protocol: as §1, §2
# [4] = target: bovine serum albumin (BSA) (Bos taurus, UniProt P02769); assay: biochemical; format: binding
# Sequence of bovine serum albumin (BSA) (P02769 25-607): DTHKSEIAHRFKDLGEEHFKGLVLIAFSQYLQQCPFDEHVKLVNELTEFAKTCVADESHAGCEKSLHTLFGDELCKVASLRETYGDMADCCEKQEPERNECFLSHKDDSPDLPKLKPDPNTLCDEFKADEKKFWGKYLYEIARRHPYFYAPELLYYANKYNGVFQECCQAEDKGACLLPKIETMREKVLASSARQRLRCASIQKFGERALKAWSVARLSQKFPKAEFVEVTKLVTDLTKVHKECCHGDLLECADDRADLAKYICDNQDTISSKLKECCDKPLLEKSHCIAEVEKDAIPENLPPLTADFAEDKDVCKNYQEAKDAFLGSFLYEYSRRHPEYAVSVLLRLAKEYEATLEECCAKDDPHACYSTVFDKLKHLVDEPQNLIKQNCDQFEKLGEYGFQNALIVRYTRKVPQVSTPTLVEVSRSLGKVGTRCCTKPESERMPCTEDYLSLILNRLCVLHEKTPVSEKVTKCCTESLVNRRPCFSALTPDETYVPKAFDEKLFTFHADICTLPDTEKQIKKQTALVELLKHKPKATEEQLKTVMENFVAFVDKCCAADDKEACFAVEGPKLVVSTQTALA
# Protocol: (§3) The selectivity of peptide 37 was assessed by two different tests. First, peptide 37 was tested for binding to a panel of arbitrarily selected proteins including bovine serum albumin (BSA), protein tyrosine phosphatases 1B, SHP1, and SHP2, the Grb2 SH2 domain, Ras, and tumor necrosis factor-a. […] Peptide 37 was next tested for potential inhibition of Pin4, FKBP12, and cyclophilin A, the three other common human peptidyl-prolyl cis-trans isomerases. […] Peptide 37 had no effect on the catalytic activity of FKBP12 or cyclophilin A up to 5 μM concentration.
# Grb2 SH2 domain = target: T2, Grb2 SH2 domain (Homo sapiens, UniProt P62993); assay: Selectivity panel binding
# T2 construct: the Grb2 SH2 domain
# T2 sequence (P62993 60-152 limits assumed): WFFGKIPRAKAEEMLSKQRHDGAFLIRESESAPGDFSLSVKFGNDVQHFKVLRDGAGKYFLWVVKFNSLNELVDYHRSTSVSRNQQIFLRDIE
# Protocol: as §3
# Ras = assay: Selectivity panel binding
# Protocol: as §3
# SHP1 = SHP1 (Homo sapiens, UniProt P29350); assay: Selectivity panel binding
# Sequence of SHP1 (P29350 whole entry): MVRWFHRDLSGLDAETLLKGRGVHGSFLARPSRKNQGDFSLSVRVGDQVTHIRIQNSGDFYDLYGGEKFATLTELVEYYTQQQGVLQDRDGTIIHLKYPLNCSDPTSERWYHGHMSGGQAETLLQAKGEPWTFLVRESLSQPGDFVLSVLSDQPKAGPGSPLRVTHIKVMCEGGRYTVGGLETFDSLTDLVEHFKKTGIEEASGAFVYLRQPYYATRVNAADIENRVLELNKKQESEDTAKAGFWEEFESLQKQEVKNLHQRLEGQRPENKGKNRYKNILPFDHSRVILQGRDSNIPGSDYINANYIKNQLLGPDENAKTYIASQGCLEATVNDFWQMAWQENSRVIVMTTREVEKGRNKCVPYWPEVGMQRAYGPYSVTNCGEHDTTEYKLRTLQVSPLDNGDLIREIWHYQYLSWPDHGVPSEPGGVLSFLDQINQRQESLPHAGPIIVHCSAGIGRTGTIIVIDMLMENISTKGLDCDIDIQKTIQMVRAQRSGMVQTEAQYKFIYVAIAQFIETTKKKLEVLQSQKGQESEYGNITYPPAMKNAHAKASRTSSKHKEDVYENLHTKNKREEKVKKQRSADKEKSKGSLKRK
# Protocol: as §3
# SHP2 = SHP2 (Homo sapiens, UniProt Q06124); assay: Selectivity panel binding
# Sequence of SHP2 (Q06124 whole entry, species assumed): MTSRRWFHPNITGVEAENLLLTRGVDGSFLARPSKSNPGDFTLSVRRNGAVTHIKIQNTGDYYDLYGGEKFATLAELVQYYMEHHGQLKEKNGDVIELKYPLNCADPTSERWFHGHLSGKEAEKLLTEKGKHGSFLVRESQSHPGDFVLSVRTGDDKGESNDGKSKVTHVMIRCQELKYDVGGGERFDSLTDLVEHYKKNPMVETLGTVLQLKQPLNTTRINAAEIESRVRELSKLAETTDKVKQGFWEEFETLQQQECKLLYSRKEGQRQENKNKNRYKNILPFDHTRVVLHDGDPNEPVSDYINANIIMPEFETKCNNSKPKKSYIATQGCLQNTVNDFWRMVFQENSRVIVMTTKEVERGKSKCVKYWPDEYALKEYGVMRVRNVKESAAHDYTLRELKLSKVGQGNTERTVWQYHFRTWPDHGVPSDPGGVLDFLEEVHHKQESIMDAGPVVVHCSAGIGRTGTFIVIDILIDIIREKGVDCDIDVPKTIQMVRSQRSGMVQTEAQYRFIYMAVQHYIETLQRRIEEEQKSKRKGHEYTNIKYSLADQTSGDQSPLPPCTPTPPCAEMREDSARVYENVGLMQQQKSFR
# Protocol: as §3
# [5] = target: protein tyrosine phosphatases 1B (Homo sapiens, UniProt P18031); assay: Selectivity panel binding
# Sequence of protein tyrosine phosphatases 1B (P18031 whole entry): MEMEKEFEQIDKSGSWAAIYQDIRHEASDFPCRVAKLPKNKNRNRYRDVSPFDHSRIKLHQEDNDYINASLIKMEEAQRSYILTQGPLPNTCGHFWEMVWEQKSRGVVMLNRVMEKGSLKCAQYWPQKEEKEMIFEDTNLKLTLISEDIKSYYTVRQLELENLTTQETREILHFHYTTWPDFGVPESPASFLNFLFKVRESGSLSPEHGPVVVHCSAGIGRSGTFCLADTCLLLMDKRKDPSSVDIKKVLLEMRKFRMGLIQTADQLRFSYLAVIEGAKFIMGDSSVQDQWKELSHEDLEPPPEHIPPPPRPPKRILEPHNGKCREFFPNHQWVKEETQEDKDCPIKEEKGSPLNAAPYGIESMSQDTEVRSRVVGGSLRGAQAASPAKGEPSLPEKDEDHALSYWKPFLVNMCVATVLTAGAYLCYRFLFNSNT
# Protocol: as §3
# tumor necrosis factor-a = tumor necrosis factor-a (Homo sapiens, UniProt P01375); assay: Selectivity panel binding
# Sequence of tumor necrosis factor-a (P01375 77-233 limits assumed): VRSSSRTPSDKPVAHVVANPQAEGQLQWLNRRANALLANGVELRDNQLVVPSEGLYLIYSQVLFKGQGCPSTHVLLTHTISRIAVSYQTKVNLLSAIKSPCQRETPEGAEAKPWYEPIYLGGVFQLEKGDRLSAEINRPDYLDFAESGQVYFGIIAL
# Protocol: as §3
# FKBP12 = FKBP12 (Homo sapiens, UniProt P62942); assay: cis-trans isomerase activity; format: biochemical; details: up to 5 μM
# Sequence of FKBP12 (P62942 whole entry): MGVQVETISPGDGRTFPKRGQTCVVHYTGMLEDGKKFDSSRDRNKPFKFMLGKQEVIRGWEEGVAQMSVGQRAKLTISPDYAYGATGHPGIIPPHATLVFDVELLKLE
# Protocol: as §1, §3
# Pin4 = Pin4 (Homo sapiens, UniProt Q9Y237); assay: cis-trans isomerase activity; format: biochemical
# Sequence of Pin4 (Q9Y237 whole entry): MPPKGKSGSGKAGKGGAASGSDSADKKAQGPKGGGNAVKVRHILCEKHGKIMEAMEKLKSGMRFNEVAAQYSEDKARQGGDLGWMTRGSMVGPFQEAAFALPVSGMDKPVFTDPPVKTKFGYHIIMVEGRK
# Protocol: as §1, §3
# cyclophilin A = cyclophilin A (Homo sapiens, UniProt P62937); assay: cis-trans isomerase activity; format: biochemical; details: up to 5 μM
# Sequence of cyclophilin A (P62937 whole entry): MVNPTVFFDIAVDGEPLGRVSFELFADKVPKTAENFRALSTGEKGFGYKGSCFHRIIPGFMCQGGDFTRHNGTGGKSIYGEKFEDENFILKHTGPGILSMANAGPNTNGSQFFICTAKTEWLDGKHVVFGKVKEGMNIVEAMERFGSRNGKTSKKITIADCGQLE
# Protocol: as §1, §3
# HeLa cells [6] = assay: Cellular uptake by flow cytometry; format: cell-based, human
# Protocol: The cellular uptake efficiency of peptide 37, peptide 1, and a previously reported membrane-impermeable monocyclic Pin1 inhibitor (Table 18, peptide 46) was assessed by incubating HeLa cells with the FITC-labeled peptides (5 μM) for 2 h and quantifying the total intracellular fluorescence by flow cytometry analysis. […] By contrast, cells treated with peptides 1 and 37 gave MFI values of 2562 and 8792, respectively. Thus, peptide 37 is internalized by HeLa cells ˜4-fold more efficiently than peptide 1. Presumably, the negative charged phosphate group of peptide 1 interacted electrostatically with the positively charged CPP motif and reduced the cellular uptake efficiency of the latter.
# HeLa cells [7] = assay: Western blot of PML protein level; format: cell-based, human
# Protocol: FIGS. 38A, 38B, 38C, and 38D display cellular activity of peptide 37. (FIG. 38A) Cellular uptake of peptides 1, 37, and 46 (5 μM) by HeLa cells as analyzed by flow cytometry. MFI, mean fluorescence intensity; none, untreated cells (no peptide). (FIG. 38B) Anti-proliferative effect of peptides 37, 46, and 47 on HeLa cells as measured by MTT assay. (FIG. 38C) Western blots showing the effect of peptides 1, 37 and 47 on the protein level of PML in HeLa cells. β-Actin was used as loading control. (FIG. 38D) Quantification of western blot results from (FIG. 38C). Data reported were after background subtraction and represent the mean±SD from 3 independent experiments.
# Finally, to ascertain that Pin1 is the molecular target of peptide 37 in vivo, the intracellular protein level of a well-established Pin1 substrate, […] (PML), was examined by western blot analysis. Pin1 negatively regulates the PML level in a phosphorylation-dependent manner and inhibition of Pin1 activity is expected to stabilize PML and increase its intracellular level. […] The effect was already significant at 0.2 μM inhibitor (1.8-fold increase in the PML level) and plateaued at ˜1 μM (3.3-fold increase). Again, bicyclic peptide 47 had no effect under the same conditions, while peptide 1 (the positive control, at 5 μM) increased the PML level by 3.1-fold.
# HeLa cells [8] = test system: HeLa cells
# Source text: The effect of peptide 37 on the growth of HeLa cells was examined by using the MTT cell viability assay.
# [9] = target: T3, recombinant caspase-3 enzyme (Homo sapiens, UniProt P42574); assay: In vitro fluorimetric caspase assay; format: biochemical; details: 10 μM substrate, 10 mM DTT
# T3 construct: purchased EMD Chemicals (San Diego, Calif.)
# T3 sequence (P42574 29-175 limits assumed): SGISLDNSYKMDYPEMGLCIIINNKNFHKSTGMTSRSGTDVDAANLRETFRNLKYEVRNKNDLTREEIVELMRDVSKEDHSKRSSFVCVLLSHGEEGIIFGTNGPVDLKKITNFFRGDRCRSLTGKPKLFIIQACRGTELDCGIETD
# T3 sequence (P42574 176-277 limits assumed): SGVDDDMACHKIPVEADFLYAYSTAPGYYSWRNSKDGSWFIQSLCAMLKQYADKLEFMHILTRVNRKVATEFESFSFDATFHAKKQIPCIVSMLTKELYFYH
# Source text: Reagents for peptide synthesis were purchased from Advanced ChemTech (Louisville, Ky.), NovaBiochem (La Jolla, Calif.), or Anaspec (San Jose, Calif.). Rink resin LS (100-200 mesh, 0.2 mmol/g) was purchased from Advanced ChemTech. Dextrane^Rho, trypsin and α-chymotrypsin were purchased from Sigma-Aldrich (St. Louis, Mo.). Cell culture media, fetal bovine serum, penicillin-streptomycin, 0.25% trypsin-EDTA, and DPBS were purchased from Invitrogen (Carlsbad, Calif.). Nuclear staining dye DRAQ5 was purchased from Thermo Scientific (Rockford, Ill.). Caspase-3, Human, recombinant protein was purchased from EMD Chemicals (San Diego, Calif.).
# 0.5 μL (100 U/μL) caspase-3 enzyme was first incubated with 90 μL of reaction buffer (50 mM HEPES, pH 7.4, 100 mM NaCl, 10 mM DTT) for 30 min in 96-well plate. Fluorogenic substrates (10 μL, 100 μM) were mixed into the above solutions to start the reactions, and the plate was measured on a Spectramax M5 plate reader (Ex=360 nm, Em=440 nm) (Molecular Devices). Fluorescence units (FU) increase at one-minute intervals was correlated to the release of Amc due to protease activity. The ΔFU/min was calculated from the linear portion of the reaction curve. Reported values are averages of three trials with the standard deviation indicated.
molecule,measurement,setting,value
"C[C@@H]1NC(=O)[C@H](CCCNC(=N)N)NC(=O)[C@H](Cc2ccc3ccccc3c2)NC(=O)[C@@H]2CCCCN2C(=O)[C@@H]([C@H](C)O)NC(=O)[C@H](Cc2ccc(F)cc2)NC(=O)[C@@H](Cc2ccc(F)cc2)NC(=O)c2cc3cc(c2)C(=O)NC[C@H](NC(=O)[C@@H](Cc2ccccc2)NC1=O)C(=O)N[C@@H](Cc1ccccc1)C(=O)N[C@@H](Cc1ccc2ccccc2c1)C(=O)N[C@@H](CCCNC(=N)N)C(=O)N[C@@H](CCCNC(=N)N)C(=O)N[C@@H](CCCNC(=N)N)C(=O)N[C@@H](CCCNC(=N)N)C(=O)N[C@H](C(=O)N[C@@H](CCCCN)C(N)=O)CNC3=O [Peptide 37, bicyclo[Tm-(D-4-Fpa-Fpa-D-Thr-Pip-Nal-Arg-Ala-D-Phe)-Dap-(Phe-Nal-Arg-Arg-Arg-Arg-Dap)]-Lys] ([dPhe(4-F)][Phe(4-F)][dT][Pip][2Nal]RA[dF][Dap]F[2Nal]RRRR[Dap]K-NH2; linker N-9-16 via Trimesoyl; C-terminus assumed)",Kd,Pin1 [1],120 nM
same,IC50,Pin1 [2],190 nM
same,IC50,Pin1 [3],170 nM
same,Kd,[4],~20000 nM
same,Binding to Grb2 SH2 domain,Grb2 SH2 domain,not any of the other six proteins
same,Binding to Ras,Ras,not any of the other six proteins
same,Binding to SHP1,SHP1,not any of the other six proteins
same,Binding to SHP2,SHP2,not any of the other six proteins
same,Binding to protein tyrosine phosphatase 1B,[5],not any of the other six proteins
same,Binding to tumor necrosis factor-a,tumor necrosis factor-a,not any of the other six proteins
same,Effect on catalytic activity of FKBP12,FKBP12,no effect
same,inhibition at 5 µM,Pin4; 5 μM inhibitor,~15%
same,IC50,Pin4; estimated,~34000 nM
same,Effect on catalytic activity of cyclophilin A,cyclophilin A,no effect
same,Internalization more efficient than peptide 1,HeLa cells [6],~4 fold
same,Mean fluorescence intensity (MFI),"HeLa cells [6]; 5 μM FITC-labeled peptide, 2 h",8792
same,Increase in the PML level,HeLa cells [7]; 0.2 μM inhibitor,1.8 fold
same,Effect on the PML level,HeLa cells [7]; 0.2-5 μM,concentration-dependent increases in the PML level
same,Increase in the PML level (plateau),HeLa cells [7]; ~1 μM inhibitor,3.3 fold
same,Growth inhibition,HeLa cells [8]; 3-day treatment with 5 μM,> 60%
same,IC50,"HeLa cells [8]; read-out: IC50 of HeLa cell growth, MTT",1000 nM
"A^c−RRRRRRRRRDΩUD^−A^mc (not fully specified (N-terminus, C-terminus); printed as Ac−RRRRRRRRRDΩUD−Amc) [Peptide 7 (Example 2)]","In vitro activity against recombinant caspase-3 enzyme, ΔFU/min",[9],45.3 ± 6.5 ΔFU/min
